Laboratory results taken from publication PMC12992715, “Dual interference with host neuropeptide signaling allows parasitoid wasp to hijack host sugar metabolism” (The EMBO Journal, 2025).
No end group written: not given here.

What was measured:
[1] = test system: Spodoptera exigua and Antheraea pernyi; details: bovine insulin injection, words, ref PMID: 25703302, 34564224; cited from earlier work
Description: page 9: short summary of the existing data, including for instance, which species this experiment has been conducted in and the data linking bovine insulin to activation of insect insulin-like pathways. […] Response: Thank you for pointing out the need to better justify the use of bovine insulin in our experimental design.

P. xylostella larvae [2] = assay: Haemolymph trehalose after bovine insulin; assay type: in vivo, Plutella xylostella; details: 1 μg bovine insulin, words
Procedure: (§1) Microinjections were performed under a Stemi 2000C microscope (Zeiss) using glass capillary injection needles and an Eppendorf Femtojet (Eppendorf) with a microcontroller (Narishige). To confirm the function of bovine insulin on hosts, 1 μg bovine insulin (Sigma-Aldrich, I0305000) was injected into the middle 3rd instar P. xylostella larvae. To identify the effect of each parasitic factor on hosts, 0.05 FE CvBV or 0.05 VRE venom was injected into the abdomen of the middle 3rd instar P. xylostella larva (Wang et al, [2018]; Yu et al, [2007]). 1 TE teratocytes’ content was microinjected into the early 4th instar P. xylostella larvae. To confirm the function of each synthetic sNPF peptide, 0.005 ng, 0.05 ng, or 0.5 ng of each peptide was injected into the middle 3rd instar P. xylostella larvae in a volume of 0.1 μl/per larva once per day for 3 consecutive days.
For P. xylostella larvae, 1 μl of haemolymph from the moth was diluted 60-fold in cold PBS and subjected to trehalose determination. The fat body of P. xylostella larvae was homogenised in 200 μl of cold PBS. […]
Trehalose content determination was performed by the anthrone sulfate method. […] The absorbance of samples was then measured at 630 nm on a SpectraMax® iD5 Multi-Mode Microplate Reader (Molecular Devices), and the trehalose levels were calculated based on the standard curve and normalised by protein content or sample volume.

[3] = test system: PxInR, PxGP, PxHK and PxTPS mRNA; assay: qPCR of PxInR, PxGP, PxHK, PxTPS after bovine insulin; assay type: in vivo, Plutella xylostella; details: for PxInR relative expression, average: Figure 3D; for PxInR relative expression, average / PxGP relative expression, average: normalised to Pxβ-actin and Pxβ-tubulin; for PxGP relative expression, average / PxGP relative expression: Figure 3E
Description: (§2) To analyse gene expression in different tissues, P. xylostella larvae were dissected under the microscope, followed by the collection of the silk gland, fat body, midgut, haemocytes and central nervous system (CNS, brain and ventral nerve cord). Haemocytes were collected on clean Parafilm membranes with capillaries by bleeding the larvae from a cut proleg. To explore gene expression at different instars of parasitised or non-parasitised larvae, non-parasitised larva was isolated individually using RNA-easy Isolation Reagent (Vazyme). Parasitoid larvae were removed before parasitised hosts were isolated. As for the measurement of other experiments, per larva with different treatments was isolated individually using RNA-easy Isolation Reagent according to the manufacturer’s instructions.
(§3) The quality and concentrations of total RNAs were estimated by electrophoresis and NanoDrop 2000 spectrophotometer (Thermo Fisher Scientific). First-strand cDNAs were synthesised using the ReverTra Ace qPCR RT kit (Toyobo) according to the manufacturer’s instructions. Both β-actin (GenBank Acc. No.: AB282645) and β-tubulin (GenBank Acc. No.: EU127912) of P. xylostella were used as internal controls. Primer sequences used for qPCR analysis are shown in Appendix Table S4. qPCR was performed by using THUNDERBIRD® SYBR qPCR Mix (Toyobo) on the CFX Connect real-time system (Bio-Rad). All qPCR assays were performed using four internal replicates and at least three biological replicates under the following conditions: 95 °C for 60 s and 40 cycles of 95 °C for 15 s and 60 °C for 30 s. Relative gene expression levels were calculated using the 2^−ΔΔCt method.
as §1

PxHK mRNA in the midgut = assay: Ex vivo midgut incubation with sNPF and signalling inhibitors, PxHK mRNA; assay type: cell-based, Plutella xylostella; details: midgut ex vivo, 20 µM sNPF + 10 µM U73122 (PLCβ inhibitor), 25 °C, 1 h; n = 5; words
Procedure: (§4) The in vitro incubations of fat body or midgut were performed as previously described with minor modifications (Cheng et al, [2022]). The fat bodies and midguts from non-parasitised middle 4th instar P. xylostella larvae were collected in 0.5 mL of PBS. The collected tissues were then preincubated in culture dishes containing TNM-FH medium (HyClone) for 30 min. sNPF peptides or inhibitors were administered to isolated fat body and midgut in vitro using a modified method from a previous study (Oh et al, [2019]). 1 mM stock solution of pertussis toxin (PTX, Tocris Bioscience) or U73122 (MedChemExpress) was dissolved in DMSO (Sigma-Aldrich) and kept at −80 °C. 0.1 ng/µl PTX or 10 µM U73122 were then mixed with 20 µM sNPF-contained TNM-FH medium. Preincubated tissues were incubated in these mixtures at 25 °C for 1 h, followed by total RNA isolation and qPCR.

[4] = test system: PxGP mRNA in the fat body; assay: Ex vivo fat body incubation with sNPF and signalling inhibitors, PxGP mRNA; assay type: cell-based, Plutella xylostella; details: 20 µM sNPF + PTX (0.4 µM in legend, 0.1 ng/µl in method), 25 °C, 1 h, n = 6, words
Procedure: as §4

P. xylostella larvae [5] = assay: Circulating haemolymph trehalose after injection of synthetic sNPF peptides, venom, CvBV or teratocyte content; assay type: in vivo, Plutella xylostella; details: for effect on haemolymph trehalose level: synthetic PxsNPFs, injected into 3M larvae, measured at 4M, high dosage 0.5 ng per larva, n = 4-6, words
Procedure: as §1
For P. xylostella larvae, 1 μl of haemolymph from the moth was diluted 60-fold in cold PBS and subjected to trehalose determination. The fat body of P. xylostella larvae was homogenised in 200 μl of cold PBS. Half of the homogenate was centrifuged at 13,000 rpm for 15 min, and the supernatant was used for protein content determination by Bradford Reagent (Invitrogen). The rest was heated at 70 °C for 5 min followed by centrifuging at 13,000 rpm for 15 min, and the supernatant was used for glycogen determination.
Trehalose content determination was performed by the anthrone sulfate method. 15 μL of the sample was incubated with 15 μL of 1% H2SO4 at 90 °C for 10 min, then 15 μL of 30% KOH was added and incubated at 90 °C for 10 min. Finally, 300 μl of 0.2% anthrone (Sigma-Aldrich) solution in 96% H2SO4 was added and incubated at 90 °C for 10 min. All reactions were stopped by immersion in ice. To create a trehalose standard curve, 15 μl of trehalose standards (Sigma-Aldrich) were treated similarly as a sample. Finally, 100 μl of each sample was added to a 96-well plate. The absorbance of samples was then measured at 630 nm on a SpectraMax® iD5 Multi-Mode Microplate Reader (Molecular Devices), and the trehalose levels were calculated based on the standard curve and normalised by protein content or sample volume.

[6] = test system: PxGP, PxHK and PxTPS mRNA; assay: qPCR of PxGP, PxHK, PxTPS in larvae injected with synthetic sNPF, venom, CvBV or teratocytes; assay type: in vivo, Plutella xylostella
Description: as §2, §3, §1

PxsNPF mRNA = PxsNPF mRNA after injection of venom, CvBV or teratocytes; assay type: in vivo, Plutella xylostella
Description: as §2
The quality and concentrations of total RNAs were estimated by electrophoresis and NanoDrop 2000 spectrophotometer (Thermo Fisher Scientific). First-strand cDNAs were synthesised using the ReverTra Ace qPCR RT kit (Toyobo) according to the manufacturer’s instructions. Both β-actin (GenBank Acc. No.: AB282645) and β-tubulin (GenBank Acc. No.: EU127912) of P. xylostella were used as internal controls. […] Relative gene expression levels were calculated using the 2^−ΔΔCt method. […]

[7] = target: Plutella xylostella sNPF receptor (PxsNPFR) (Plutella xylostella)

bovine insulin
hemolymph trehalose levels [1]: significant reduction in hemolymph trehalose levels | blood trehalose level (P. xylostella larvae [2]; normal (non-parasitised) larvae): reduces the blood trehalose level | haemolymph trehalose level (P. xylostella larvae [2]; parasitised host, 4M, n = 4-5): not reduced by bovine insulin in the parasitised host as in the non-parasitised group | PxGP expression ([3]; 1 μg bovine insulin, parasitised host, 4M, n = 4-5, words): not reduced by bovine insulin in the parasitised host as in the non-parasitised group | PxInR expression ([3]; 1 μg bovine insulin, whole body, 4M, n = 4-5, non-parasitised and parasitised, words): upregulated in both non-parasitised and parasitised hosts | PxInR relative expression, average ([3]; NP, mean of 5 replicates): 3.425 | PxInR relative expression, average ([3]; P, mean of 4 replicates): 7.591 | PxGP relative expression, average ([3]; NP, mean of 5 replicates): 0.3318 | PxGP relative expression ([3]; NP, replicate 1): 0.3933 | PxGP relative expression ([3]; NP, replicate 2): 0.2777 | PxGP relative expression ([3]; NP, replicate 3): 0.2734 | PxGP relative expression ([3]; NP, replicate 4): 0.4168 | PxGP relative expression ([3]; NP, replicate 5): 0.298 | PxGP relative expression, average ([3]; P, mean of 4 replicates): 3.4733 | PxGP relative expression ([3]; P, replicate 1): 3.51 | PxGP relative expression ([3]; P, replicate 2): 4.4126 | PxGP relative expression ([3]; P, replicate 3): 3.361 | PxGP relative expression ([3]; P, replicate 4): 2.609

COc1ccc2c(c1)CC[C@@H]1[C@@H]2CC[C@]2(C)[C@@H](NCCCCCCN3C(=O)C=CC3=O)CC[C@@H]12 [U73122, reference compound]
effect on sPxsNPF-1-stimulated PxHK mRNA (PxHK mRNA in the midgut): abolished the facilitatory effect of sPxsNPF-1 on PxHK

pertussis toxin [PTX]
effect on sCvsNPF-stimulated PxGP mRNA [4]: decreased the sCvsNPF activation of PxGP

DTRQPVRLRF-NH2 [sPxsNPF-2, synthetic short neuropeptide F-2 of Plutella xylostella]
effect on haemolymph trehalose level (P. xylostella larvae [5]): did not have this effect

Cotesia vestalis bracovirus [CvBV]
PxGP relative expression, average ([6]; Figure 4B, CvBV injection, qPCR, Pxβ-actin and Pxβ-tubulin reference, relative to PBS (normalizer 6.00), mean of 5 replicates, SD 0.29): 0.87 | PxGP relative expression, average ([6]; Figure 4B, PxGP vs PBS, Pxβ-actin/Pxβ-tubulin reference, mean of 5 replicates): 1.73 | PxHK relative expression, Average ([6]; Figure 4B, PxHK vs PBS, Pxβ-actin/Pxβ-tubulin reference, mean of 5 replicates): 2.64 | PxHK relative expression ([6]; Figure 4B, PxHK vs PBS, Pxβ-actin/Pxβ-tubulin reference, replicate 1): 2.97 | PxHK relative expression ([6]; Figure 4B, PxHK vs PBS, Pxβ-actin/Pxβ-tubulin reference, replicate 2): 2.49 | PxHK relative expression ([6]; Figure 4B, PxHK vs PBS, Pxβ-actin/Pxβ-tubulin reference, replicate 3): 2.41 | PxHK relative expression ([6]; Figure 4B, PxHK vs PBS, Pxβ-actin/Pxβ-tubulin reference, replicate 4): 2.30 | PxHK relative expression ([6]; Figure 4B, PxHK vs PBS, Pxβ-actin/Pxβ-tubulin reference, replicate 5): 3.01 | transcript level of PxHK ([6]; non-parasitised larvae (whole body), CvBV, 3L, n = 5, words): increases the transcript level of PxHK | PxsNPF expression (PxsNPF mRNA; 24 h after injection, n = 3-6, words): an increase in PxsNPF expression 24 h after CvBV injection | PxsNPF relative expression, Average (PxsNPF mRNA; Figure 5K, 3M, average of replicates, vs PBS): 1.99 | increase of circulating trehalose (P. xylostella larvae [5]; 0.05 FE CvBV injected into 3M larvae, at 3L, n = 3-4): 40%

SVRAPSMRLRF-NH2 [sPxsNPF-3, synthetic short neuropeptide F-3 of Plutella xylostella]
effect on haemolymph trehalose level (P. xylostella larvae [5]): did not have this effect

SQRSPSLRLRF-NH2 [synthetic CvsNPF (Cotesia vestalis short neuropeptide F)]
inhibition of forskolin-stimulated cAMP accumulation in PxsNPFR-expressing HEK293 cells (10 μM forskolin, various peptide concentrations, 15 min; cAMP-Glo), EC50 [7]: 402 nM
